Structures are written as SMILES. Where only a bound is given, the exact number is not on record here.

Chain of Human CD38 (P28907 whole entry): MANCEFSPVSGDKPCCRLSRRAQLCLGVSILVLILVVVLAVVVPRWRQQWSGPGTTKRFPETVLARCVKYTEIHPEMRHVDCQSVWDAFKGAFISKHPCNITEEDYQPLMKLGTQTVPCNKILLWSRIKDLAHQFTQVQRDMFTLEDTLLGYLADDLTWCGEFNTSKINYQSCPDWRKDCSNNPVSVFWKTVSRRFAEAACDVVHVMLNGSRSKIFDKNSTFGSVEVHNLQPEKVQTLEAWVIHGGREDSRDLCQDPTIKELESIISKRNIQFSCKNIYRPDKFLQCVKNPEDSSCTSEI

The assay deals with Human CD38 (Homo sapiens (Human), UniProt P28907). Description: CD38 enzyme assay. Format: biochemical. The conditions noted are these: 2 nM CD38, NAD+ substrate, absorbance at 405 nm. Put shortly:
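IC50 values come from fitting % inhibition against compound concentration with a 4-parameter logistic, or a 3-parameter fit with top/bottom fixed at 100/0 or Hill at 1. Inhibition is scaled between DMSO wells and positive-control wells treated with a quinolinone CD38 inhibitor.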
In general, IC50 refers to the point on the concentration scale where inhibition reaches its midpoint. Read a high IC50 as weaker potency. For `O=C(N[C@H]1CC[C@@H](NCC(F)(F)F)CC1)c1nc(-n2ccnc2)nc2cc[nH]c12` [Example 102, 2-(1H-imidazol-1-yl)-N-((1s,4s)-4-((2,2,2-trifluoroethyl)amino)cyclohexyl)-5H-pyrrolo[3,2-d]pyrimidine-4-carboxamide], the IC50 is 10 to 100 nM.

For the molecule `O=C(N[C@H]1CC[C@H](NCCC(F)(F)F)CC1)c1nc(-n2ccnc2)nc2cc[nH]c12` [Example 103, 2-(1H-imidazol-1-yl)-N-((1r,4r)-4-((3,3,3-trifluoropropyl)amino)cyclohexyl)-5H-pyrrolo[3,2-d]pyrimidine-4-carboxamide], the IC50 was in the range of 10 to 100 nM.

The molecule `N#CCO[C@H]1CC[C@H](NC(=O)c2nc(-n3ccnc3)nc3cc[nH]c23)CC1` [Example 104, N-((1r,4r)-4-(cyanomethoxy)cyclohexyl)-2-(1H-imidazol-1-yl)-5H-pyrrolo[3,2-d]pyrimidine-4-carboxamide] returned a half-inhibitory concentration (IC50) of under 10 nM.

`O=C(N[C@H]1CC[C@H](NCC(F)F)CC1)c1nc(-n2ccnc2)nc2cc[nH]c12` [Example 105, N-((1r,4r)-4-((2,2-difluoroethyl)amino)cyclohexyl)-2-(1H-imidazol-1-yl)-5H-pyrrolo[3,2-d]pyrimidine-4-carboxamide]: the IC50 fell in the range of 10 to 100 nM.

`O=C(N[C@H]1CC[C@@H](NCC(F)F)CC1)c1nc(-n2ccnc2)nc2cc[nH]c12` [Example 106, N-((1s,4s)-4-((2,2-difluoroethyl)amino)cyclohexyl)-2-(1H-imidazol-1-yl)-5H-pyrrolo[3,2-d]pyrimidine-4-carboxamide] registered a 50% inhibitory concentration (IC50) of 100 to 1000 nM.

As to `O=C(NC1CCC(F)(F)CC1)c1nc(-n2ccnc2)cc2cn[nH]c12` [Example 107, N-(4,4-difluorocyclohexyl)-5-(1H-imidazol-1-yl)-1H-pyrazolo[3,4-c]pyridine-7-carboxamide], the IC50 is under 10 nM.

Regarding `COCCO[C@H]1CC[C@H](NC(=O)c2nc(-n3ccnc3)nc3cc(C)[nH]c23)CC1` [Example 108, 2-(1H-imidazol-1-yl)-N-((1r,4r)-4-(2-methoxyethoxy)cyclohexyl)-6-methyl-5H-pyrrolo[3,2-d]pyrimidine-4-carboxamide], the 50% inhibitory concentration (IC50) lay in the range of 10 to 100 nM.

`CC(C)(O)[C@H]1CC[C@H](NC(=O)c2nc(-n3ccnc3)cc3cn[nH]c23)CC1` [Example 109, N-((1r,4r)-4-(2-hydroxypropan-2-yl)cyclohexyl)-5-(1H-imidazol-1-yl)-1H-pyrazolo[3,4-c]pyridine-7-carboxamide] came in with a half-maximal inhibitory concentration (IC50) of under 10 nM.

Consider `CN(CCC(F)(F)F)[C@H]1CC[C@H](NC(=O)c2nc(-n3ccnc3)nc3cc[nH]c23)CC1` [Example 110, 2-(1H-imidazol-1-yl)-N-((1r,4r)-4-(methyl(3,3,3-trifluoropropyl)amino)cyclohexyl)-5H-pyrrolo[3,2-d]pyrimidine-4-carboxamide], for which the IC50 is 10 to 100 nM.

In turn, `CN(CCC(F)(F)F)[C@H]1CC[C@@H](NC(=O)c2nc(-n3ccnc3)nc3cc[nH]c23)CC1` [Example 111, 2-(1H-imidazol-1-yl)-N-((1s,4s)-4-(methyl(3,3,3-trifluoropropyl)amino)cyclohexyl)-5H-pyrrolo[3,2-d]pyrimidine-4-carboxamide] yielded a 50% inhibitory concentration (IC50) of 100 to 1000 nM.

`CN(CC(F)(F)F)[C@H]1CC[C@H](NC(=O)c2nc(-n3ccnc3)nc3cc[nH]c23)CC1` [Example 112, 2-(1H-imidazol-1-yl)-N-((1r,4r)-4-(methyl(2,2,2-trifluoroethyl)amino)cyclohexyl)-5H-pyrrolo[3,2-d]pyrimidine-4-carboxamide] came in with an IC50 of 10 to 100 nM.

Regarding `CN(CC(F)(F)F)[C@H]1CC[C@@H](NC(=O)c2nc(-n3ccnc3)nc3cc[nH]c23)CC1` [Example 113, 2-(1H-imidazol-1-yl)-N-((1s,4s)-4-(methyl(2,2,2-trifluoroethyl)amino)cyclohexyl)-5H-pyrrolo[3,2-d]pyrimidine-4-carboxamide], the IC50 lay in the range of 10 to 100 nM.

The molecule `CC(=O)NC[C@H]1CC[C@H](NC(=O)c2nc(-n3ccnc3)nc3cc[nH]c23)CC1` [Example 114, N-((1r,4r)-4-(acetamidomethyl)cyclohexyl)-2-(1H-imidazol-1-yl)-5H-pyrrolo[3,2-d]pyrimidine-4-carboxamide] showed a half-maximal inhibitory concentration (IC50) of under 10 nM.

On to `O=C(N[C@H]1CC[C@H](NCC(F)(F)F)CC1)c1nc(-n2ccnc2)cc2cn[nH]c12` [Example 115, 5-(1H-imidazol-1-yl)-N-((1r,4r)-4-((2,2,2-trifluoroethyl)amino)cyclohexyl)-1H-pyrazolo[3,4-c]pyridine-7-carboxamide], for which the IC50 was 10 to 100 nM.

Take `O=C(N[C@H]1CC[C@@H](NCC(F)(F)F)CC1)c1nc(-n2ccnc2)cc2cn[nH]c12` [Example 116, 5-(1H-imidazol-1-yl)-N-((1s,4s)-4-((2,2,2-trifluoroethyl)amino)cyclohexyl)-1H-pyrazolo[3,4-c]pyridine-7-carboxamide]: the IC50 is 10 to 100 nM.

As for `Cc1nc2nc(-n3ccnc3)nc(C(=O)NC3CCC(F)(F)CC3)c2[nH]1` [Example 117, N-(4,4-difluorocyclohexyl)-2-(1H-imidazol-1-yl)-8-methyl-7H-purine-6-carboxamide], the IC50 lay within 10 to 100 nM.

Consider `CC(C)(C#N)c1ccc(NC(=O)c2nc(-n3ccnc3)nc3cc[nH]c23)cc1` [Example 118, N-[4-(1-cyano-1-methyl-ethyl)phenyl]-2-imidazol-1-yl-5H-pyrrolo[3,2-d]pyrimidine-4-carboxamide], for which the IC50 is under 10 nM.

In the case of `O=C(N[C@H]1CC[C@](O)(C(F)(F)F)CC1)c1nc(-n2ccnc2)nc2cc[nH]c12` [Example 120a, N-((1s,4s)-4-hydroxy-4-(trifluoromethyl)cyclohexyl)-2-(1H-imidazol-1-yl)-5H-pyrrolo[3,2-d]pyrimidine-4-carboxamide], the IC50 is under 10 nM.

As for `O=C(N[C@H]1CC[C@@](O)(C(F)(F)F)CC1)c1nc(-n2ccnc2)nc2cc[nH]c12` [Example 120b, N-((1r,4r)-4-hydroxy-4-(trifluoromethyl)cyclohexyl)-2-(1H-imidazol-1-yl)-5H-pyrrolo[3,2-d]pyrimidine-4-carboxamide], the 50% inhibitory concentration (IC50) lay in the range of 10 to 100 nM.

With `O=C(N[C@H]1CC[C@H](C(F)(F)F)CC1)c1nc(-n2ccnc2)nc2ccsc12` [Example 121, 2-(1H-imidazol-1-yl)-N-((1r,4r)-4-(trifluoromethyl)cyclohexyl)thieno[3,2-d]pyrimidine-4-carboxamide], the IC50 is under 10 nM.

For `O=C(N[C@H]1CC[C@@H](C(F)(F)F)CC1)c1nc(-n2ccnc2)nc2ccsc12` [Example 122, 2-(1H-imidazol-1-yl)-N-((1s,4s)-4-(trifluoromethyl)cyclohexyl)thieno[3,2-d]pyrimidine-4-carboxamide], the concentration for half-maximal inhibition (IC50) is under 10 nM.

For the molecule `O=C(N[C@@H]1CCNC[C@@H]1F)c1nc(-n2ccnc2)nc2cc[nH]c12` [Example 123a, N-((3S,4R)-3-fluoropiperidin-4-yl)-2-(1H-imidazol-1-yl)-5H-pyrrolo[3,2-d]pyrimidine-4-carboxamide], the IC50 was 10 to 100 nM.

With `O=C(N[C@@H]1CCNC[C@H]1F)c1nc(-n2ccnc2)nc2cc[nH]c12` [Example 123b, N-((3R,4R)-3-fluoropiperidin-4-yl)-2-(1H-imidazol-1-yl)-5H-pyrrolo[3,2-d]pyrimidine-4-carboxamide], the IC50 lay in the range of 100 to 1000 nM.

`COCCO[C@H]1CCC[C@H](NC(=O)c2nc(-n3ccnc3)nc3cc[nH]c23)C1` [Example 124a, 2-(1H-imidazol-1-yl)-N-((1S,3S)-3-(2-methoxyethoxy)cyclohexyl)-5H-pyrrolo[3,2-d]pyrimidine-4-carboxamide]: the concentration for half-maximal inhibition (IC50) was 10 to 100 nM.

As for `COCCO[C@@H]1CCC[C@H](NC(=O)c2nc(-n3ccnc3)nc3cc[nH]c23)C1` [Example 124b, 2-(1H-imidazol-1-yl)-N-((1S,3R)-3-(2-methoxyethoxy)cyclohexyl)-5H-pyrrolo[3,2-d]pyrimidine-4-carboxamide], the half-maximal inhibitory concentration (IC50) lay in the range of 10 to 100 nM.

In turn, `C[C@H](O)COC1CCC(NC(=O)c2nc(-n3ccnc3)nc3cc[nH]c23)CC1` (stereo partly drawn) [Example 125b, N-((1R,4r)-4-((S)-2-hydroxypropoxy)cyclohexyl)-2-(1H-imidazol-1-yl)-5H-pyrrolo[3,2-d]pyrimidine-4-carboxamide] displayed an IC50 of 10 to 100 nM.

`CC(C)[C@](C)(O)COC1CCC(NC(=O)c2nc(-n3ccnc3)nc3cc[nH]c23)CC1` (stereo partly drawn) [Example 126b, N-((1R,4r)-4-((S)-2-hydroxy-2,3-dimethylbutoxy)cyclohexyl)-2-(1H-imidazol-1-yl)-5H-pyrrolo[3,2-d]pyrimidine-4-carboxamide] displayed an IC50 of 10 to 100 nM.

Molecule `C[C@](O)(C(=O)NC1CCC(NC(=O)c2nc(-n3ccnc3)nc3cc[nH]c23)CC1)C(F)(F)F` (stereo partly drawn) [Example 127b, 2-(1H-imidazol-1-yl)-N-((1R,4r)-4-((S)-3,3,3-trifluoro-2-hydroxy-2-methylpropanamido)cyclohexyl)-5H-pyrrolo[3,2-d]pyrimidine-4-carboxamide] had an IC50 of 10 to 100 nM.

`CO[C@]1(C)CC[C@@H](NC(=O)c2nc(-n3ccnc3)nc3cc[nH]c23)CC1` [Example 128a, 2-(1H-imidazol-1-yl)-N-((1r,4r)-4-methoxy-4-methylcyclohexyl)-5H-pyrrolo[3,2-d]pyrimidine-4-carboxamide] had an IC50 of under 10 nM.

`CO[C@]1(C)CC[C@H](NC(=O)c2nc(-n3ccnc3)nc3cc[nH]c23)CC1` [Example 128b, 2-(1H-imidazol-1-yl)-N-((1s,4s)-4-methoxy-4-methylcyclohexyl)-5H-pyrrolo[3,2-d]pyrimidine-4-carboxamide] yielded a concentration for half-maximal inhibition (IC50) of 10 to 100 nM.

Molecule `CN(C)CCOc1ccc(NC(=O)c2nc(-n3ccnc3)nc3cc[nH]c23)nc1` [Example 129] came in with an IC50 of 10 to 100 nM.

Take `N#Cc1ccc(NC(=O)c2nc(-n3ccnc3)nc3cc[nH]c23)cc1` [Example 130]: the half-inhibitory concentration (IC50) is under 10 nM.

`COCCOc1ccc(NC(=O)c2nc(-n3ccnc3)nc3cc[nH]c23)cc1F` [Example 131] returned a 50% inhibitory concentration (IC50) of under 10 nM.

`COCn1cc(NC(=O)c2nc(-n3ccnc3)nc3cc[nH]c23)cn1` [Example 132] gave an IC50 of under 10 nM.

In turn, `CN(C)CCOCCO[C@H]1CC[C@H](NC(=O)c2nc(-n3ccnc3)nc3cc[nH]c23)CC1` [Example 133] showed a half-inhibitory concentration (IC50) of 10 to 100 nM.

(Values after US11535621B2, “Heterobicyclic amides as inhibitors of CD38” (Ribon Therapeutics, Inc., priority 2019, dated 2022).)
